Experimental data reported in patent US20210101928A1 (Sage Therapeutics, Inc., priority 2017, published 2021).

target: GABAA receptor ([35S]-TBPS binding, rat brain cortical membranes); experiment: Steroid inhibition of [35S]-TBPS binding; details: Table II-2, 3 nM [35S]-TBPS, in the presence of 5 mM GABA, read-out: TBPS IC50
Protocol: [^35S]-t-Butylbicyclophosphorothionate (TBPS) binding assays using rat brain cortical membranes in the presence of 5 mM GABA has been described (Gee et al, J. Pharmacol. Exp. Ther. 1987, 241, 346-353; Hawkinson et al, Mol. Pharmacol. 1994, 46, 977-985; Lewin, A. H et al., Mol. Pharmacol. 1989, 35, 189-194).
Briefly, cortices are rapidly removed following decapitation of carbon dioxide-anesthetized Sprague-Dawley rats (200-250 g). The cortices are homogenized in 10 volumes of ice-cold 0.32 M sucrose using a glass/teflon homogenizer and centrifuged at 1500×g for 10 min at 4° C. The resultant supernatants are centrifuged at 10,000×g for 20 min at 4° C. to obtain the P2 pellets. The P2 pellets are resuspended in 200 mM NaCl/50 mM Na—K phosphate pH 7.4 buffer and centrifuged at 10,000×g for 10 min at 4° C. This washing procedure is repeated twice and the pellets are resuspended in 10 volumes of buffer. Aliquots ([…]) of the membrane suspensions are incubated with 3 nM [^35S]-TBPS and […] aliquots of test drug dissolved in dimethyl sulfoxide (DMSO) (final 0.5%) in the presence of 5 mM GABA. The incubation is brought to a final volume of 1.0 mL with buffer. Nonspecific binding is determined in the presence of […] and ranged from 15 to 25%. Following a 90 min incubation at room temp, the assays are terminated by filtration through glass fiber filters (Schleicher and Schuell No. 32) using a cell harvester (Brandel) and rinsed three times with ice-cold buffer. Filter bound radioactivity is measured by liquid scintillation spectrometry. Non-linear curve fitting of the overall data for each drug averaged for each concentration is done using Prism (GraphPad). […] The concentration of test compound producing 50% inhibition (IC50) of specific binding and the maximal extent of inhibition (Imax) are determined for the individual experiments with the same model used for the overall data and then the means±SEM.s of the individual experiments are calculated.
Various compounds are or can be screened to determine their potential as modulators of [^35S]-TBPS binding in vitro. These assays are or can be performed in accordance with the above.

With `CCOC[C@@]1(O)CC[C@@]2(CC)[C@H](CC[C@H]3[C@@H]4CC[C@H](C(C)=O)[C@@]4(C)CC[C@@H]32)C1` [II-C4, 1-((3R,5R,8S,9S,10S,13S,14S,17S)-3-(ethoxymethyl)-10-ethyl-3-hydroxy-13-methylhexadecahydro-1H-cyclopenta[a]phenanthren-17-yl)ethan-1-one] as the molecule, how does the IC50 read?
Its IC50 is 10 to 100 nM.

With `CCOC[C@@]1(O)CC[C@@]2(CC)[C@H](CC[C@H]3[C@@H]4CC[C@H](C(=O)Cn5cc(C#N)cn5)[C@@]4(C)CC[C@@H]32)C1` [II-C8, 1-(2-((3R,5R,8S,9S,10S,13S,14S,17S)-3-(ethoxymethyl)-10-ethyl-3-hydroxy-13-methylhexadecahydro-1H-cyclopenta[a]phenanthren-17-yl)-2-oxoethyl)-1H-pyrazole-4-carbonitrile] as the molecule, how does the IC50 read?
The IC50 was < 10 nM.

With `CCOC[C@@]1(O)CC[C@@]2(CC)[C@@H](CC[C@H]3[C@@H]4CC[C@H](C(C)=O)[C@@]4(C)CC[C@@H]32)C1` [II-D9] as the molecule, how does the IC50 read?
Its IC50 is 10 to 100 nM.

With `CCOC[C@@]1(O)CC[C@@]2(CC)[C@@H](CC[C@H]3[C@@H]4CC[C@H](C(=O)N5CCCC[C@@H]5C)[C@@]4(C)CC[C@@H]32)C1` [II-D11, ((3R,5S,8S,9S,10S,13S,14S,17S)-3-(ethoxymethyl)-10-ethyl-3-hydroxy-13-methylhexadecahydro-1H-cyclopenta[a]phenanthren-17-yl)((S)-2-methylpiperidin-1-yl)methanone] as the molecule, how does the IC50 read?
Its IC50 is 100 to 1000 nM.

`CCOC[C@@]1(O)CC[C@@]2(CC)[C@@H](CC[C@H]3[C@@H]4CC[C@H](C(=O)Cn5ccc(C#N)n5)[C@@]4(C)CC[C@@H]32)C1` [II-D13, 1-(2-((3R,5S,8S,9S,10S,13S,14S,17S)-3-(ethoxymethyl)-10-ethyl-3-hydroxy-13-methylhexadecahydro-1H-cyclopenta[a]phenanthren-17-yl)-2-oxoethyl)-1H-pyrazole-3-carbonitrile] was tested. Which IC50 did it give?
The IC50 was 10 to 100 nM.

For `CC[C@]12CC[C@](O)(COC)C[C@@H]1CC[C@H]1[C@@H]3CC[C@H](C(=O)Nc4ccc(C#N)cc4C)[C@@]3(C)CC[C@@H]12` [II-E6, (3R,5S,8S,9S,10S,13S,14S,17S)-N-(4-cyano-2-methylphenyl)-10-ethyl-3-hydroxy-3-(methoxymethyl)-13-methylhexadecahydro-1H-cyclopenta[a]phenanthrene-17-carboxamide], which IC50 is on record?
The IC50 was < 10 nM.

Which IC50 does the source give for `CC[C@]12CC[C@](O)(COC)C[C@@H]1CC[C@H]1[C@@H]3CC[C@H](C(=O)Cn4ccc(C#N)n4)[C@@]3(C)CC[C@@H]12` [II-E8, 1-(2-((3R,5S,8S,9S,10S,13S,14S,17S)-10-ethyl-3-hydroxy-3-(methoxymethyl)-13-methylhexadecahydro-1H-cyclopenta[a]phenanthren-17-yl)-2-oxoethyl)-1H-pyrazole-3-carbonitrile] here?
Its IC50 is < 10 nM.

How did the IC50 turn out when `CO[C@H](C)[C@]12CC[C@@](C)(O)C[C@H]1CC[C@H]1[C@@H]3CC[C@H](C(=O)Cn4nnnc4C)[C@@]3(C)CC[C@@H]12` [II-E13, 1-((3R,5R,8S,9S,10R,13S,14S,17S)-3-hydroxy-10-((R)-1-methoxyethyl)-3,13-dimethylhexadecahydro-1H-cyclopenta[a]phenanthren-17-yl)-2-(5-methyl-1H-tetrazol-1-yl)ethan-1-one] was run?
The IC50 was 100 to 1000 nM.

Which IC50 does the source give for `CC[C@]12CC[C@@](C)(O)C[C@H]1CC[C@H]1[C@@H]3CC[C@H](C(=O)Nc4ccccc4)[C@@]3(C)CC[C@@H]12` [II-G3, (3R,5R,8S,9S,10S,13S,14S,17S)-10-ethyl-3-hydroxy-3,13-dimethyl-N-phenylhexadecahydro-1H-cyclopenta Ialphenanthrene-17-carboxamide] here?
The IC50 was < 10 nM.

Which IC50 does the source give for `CC[C@]12CC[C@@](C)(O)C[C@H]1CC[C@H]1[C@@H]3CC[C@H](C(=O)c4ccccc4C)[C@@]3(C)CC[C@@H]12` [II-G5, ((3R,5R,8S,9S,10S,13S,14S,17S)-10-ethyl-3-hydroxy-3,13-dimethylhexadecahydro-1H-cyclopenta [a]phenanthren-17-yl)(o-tolyl)methanone] here?
The IC50 was 10 to 100 nM.
